Five compounds from ChEMBL document CHEMBL2029343, “Stereoselective synthesis of alpinoid-C and its analogues and study of their cytotoxic activity against cancer cell lines” (Bioorg Med Chem Lett, 2012) can be followed below.

Type in all cases: functional, cell-based
The test system of one assay is HepG2. The assay can be described thus: Antiproliferative activity against human HepG2 cells after 48 hrs by MTT assay. Conditions: HepG2, 48 h. In general terms: Formazan colour is commonly taken as a measure of viable cells.
The subject of another assay is U-937. Put plainly: Antiproliferative activity against human U937 cells after 48 hrs by MTT assay. The note with it: U-937, 48 h.
The subject of the next assay is B16-F10. The assay can be described thus: Antiproliferative activity against mouse B16F10 cells after 48 hrs by MTT assay. Conditions: B16-F10, 48 h.
The next assay relates to COLO 205. Put plainly: Antiproliferative activity against human COLO205 cells after 48 hrs by MTT assay. Conditions: COLO 205, 48 h.
The test system of another assay is THP-1. Put plainly: Antiproliferative activity against human THP1 cells after 48 hrs by MTT assay. Conditions: THP-1, 48 h.

pIC50: −log10 of the molar value.

The term pIC50 denotes the IC50 on a negative log10 scale, so that one unit is a factor of ten. A high value points to a low IC50.

Take `O=C(/C=C/[C@H](O)Cc1ccccc1)CCc1ccccc1`: the negative logarithm of the IC50 (pIC50) was 3.73 in the assay on HepG2; 3.86 with U-937; 3.89 in the assay on B16-F10; 3.71 with COLO 205; 3.92 in the assay on THP-1.

For the compound `O=C(/C=C/[C@@H](O)Cc1ccccc1)CCc1ccccc1`, the pIC50 in the assay with HepG2 is 3.45; in the assay with U-937 it was 3.77; in the assay with B16-F10 it was 3.47; in the assay on COLO 205 it was 3.30; in the assay with THP-1, 3.71.

On to `COc1ccc(CCC(=O)/C=C/[C@H](O)Cc2ccccc2)cc1OC`, for which the pIC50 was 4.49 in the assay on HepG2; 4.65 in the assay on U-937; 4.42 in the assay on B16-F10; 4.95 in the assay with COLO 205; 5.12 in the assay with THP-1.

As for `COc1ccc(CCC(=O)/C=C/[C@@H](O)Cc2ccccc2)cc1OC`, the pIC50 with HepG2 was 4.27; in the assay on U-937, 4.50; in the assay with B16-F10, 4.01; with COLO 205, 5.14; in the assay with THP-1, 4.49.

On to `COc1cc([C@@H]2c3cc4c(cc3[C@@H](O[C@@H]3O[C@@H]5CO[C@@H](C)O[C@H]5[C@H](O)[C@H]3O)[C@H]3COC(=O)[C@H]23)OCO4)cc(OC)c1O` [ETOPOSIDE], for which the pIC50 in the assay on HepG2 was 5.32; in the assay with B16-F10, 4.73; with COLO 205, 6.37.
